Data published in article PMC12163635, “Synthetic Retinoids for the Modulation of Genomic and Nongenomic Processes in Neurodegenerative Diseases” (ACS Omega, 2025).

Test system: Sil-15 cells containing a RARE driving a lacZ reporter
Experiment: X-Gal-based RA reporter assay (genomic response)
Format: cell-based
Set-up: genomic response Emax (±95% CI): unit not given here
Details: for genomic response Emax (±95% CI) / EC50: Sil-15 reporter cells; for genomic response Emax (±95% CI): absorbance at 650 nm; for genomic E max compared with ATRA / genomic EC50 compared with ATRA: nonoverlapping 95% CI; for EC50: read-out: genomic response EC50 (±95% CI), overnight, 10^–6 to 10^–14 M
Excerpt: Following chemical design and synthesis, the synthetic retinoid library was screened for genomic and nongenomic biological activities and compared to the response of the endogenous retinoid, ATRA. In these assays, the EC50 value represented the concentration of retinoid that gave half-maximal response (potency), while the E max value represented the maximum response achievable from the retinoid (efficacy).
The transcriptional genomic activity of the retinoids was quantified using Sil-15 cells containing a RARE driving a lacZ reporter. […] Twenty-two of the synthetic retinoids were effective in inducing genomic activity. […] In addition, the retinoids varied in their efficacies.
The Sil-15 cell line was used in the X-gal RA reporter assay described below. The cells were grown in Dulbecco’s modified Eagle’s medium (DMEM) containing 10% fetal bovine serum (FCS) (Invitrogen/Gibco), 0.6% penicillin-streptomycin (Gibco) and 0.8 mg/mL G418 sulfate (Sigma) for selection. They were maintained in a humidified atmosphere containing 5% CO2 at 37 °C. The medium was changed three times a week and the cells were passaged at 70% confluence using 0.05% trypsin-EDTA.
Sil-15 cells are F9 teratocarcinoma cells stably transfected with a plasmid containing the LacZ gene under the control of a DR5-type RA response element (RARE). The reporter cell line was used to detect the transcriptional genomic activity of ATRA and other retinoids by colorimetrically quantifying the insoluble blue product generated by β-galactosidase from X-gal during the assay. The assay was performed by plating 100,000 cells per well in the 0.1% gelatin-coated 96-well plates and leaving them to attach overnight. The ATRA/retinoids dilutions ranging from 10^–6 to 10^–14 M were incubated on the reporter cells overnight at 37 °C, in 5% CO2. A standard curve of ATRA was included in each experiment to ensure the reproducibility of the results between assays performed on different days. All the assays for ATRA as well as the retinoids were quantified in triplicate. Serial dilutions of retinoids were prepared from a stock solution under red/orange light. The stock solutions prepared in DMSO for each retinoid varied depending on the solubility of each compound. Each stock was stored at −20 °C and protected from light. The next day, Sil-15 cells were washed with PBS, fixed with 1% glutaraldehyde and 1 mM MgCl2 solution for 15 min, and developed in X-gal developing solution (0.2% X-Gal, 1 mM MgCl2, 3.3 mM potassium ferricyanide and 3.3 mM potassium ferrocyanide in PBS). The plates were read on an E max microplate reader (Molecular Devices) at 650 nm.
All data are presented as mean ± SEM of three independent experiments with biological triplicates. Statistical analyses were performed in Microsoft Office Excel 2019 or GraphPad Prism 7.0c version (Prism, GraphPad Software, San Diego, CA). Neurite outgrowth data were analyzed by one-way ANOVA with Newman-Keuls multiple comparison test as appropriate; P value <0.05 was considered statistically significant. *P < 0.05, **P < 0.01. Data for X-Gal and ERK1/2 phosphorylation were analyzed using sigmoidal dose–response analysis of log (agonist) versus response curve (stimulation).

| SMILES | EC50 | genomic response Emax (±95% CI) | genomic E max compared with ATRA | genomic EC50 compared with ATRA |
| --- | --- | --- | --- | --- |
| CC1(C)CCC(C)(C)c2cc(C#Cc3ccc(C(=O)O)cc3Cl)ccc21 [Compound 16, 3-Chloro-4-[2-(5,5,8,8-tetramethyl-5,6,7,8-tetrahydronaphthalen-2-yl)ethynyl]benzoic Acid] | 13.6 nM | 97.2 (±7.9) | significantly lower E max than ATRA | significantly higher EC50 values than ATRA |
| Cc1cc2c(cc1C#Cc1ccc(C(=O)O)cn1)C(C)(C)CCC2(C)C [Compound 26, 6-[2-(3,5,5,8,8-Pentamethyl-5,6,7,8-tetrahydronaphthalen-2-yl)ethynyl]pyridine-3-carboxylic Acid] | 0.427 nM | 177 (±6.65) | – | significantly lower EC50 than ATRA |
| COc1cc2c(cc1C#Cc1ccc(C(=O)O)cn1)C(C)(C)CCC2(C)C [Compound 27, 6-[2-(3-Methoxy-5,5,8,8-tetramethyl-5,6,7,8-tetrahydronaphthalen-2-yl)ethynyl]pyridine-3-carboxylic Acid] | 3.16 nM | 176 (±8.55) | – | significantly higher EC50 values than ATRA |
| Cc1cc2c(cc1C#Cc1cc(F)c(C(=O)O)c(F)c1)C(C)(C)CCC2(C)C [Compound 19, 2,6-Difluoro-4-[2-(3,5,5,8,8-pentamethyl-5,6,7,8-tetrahydronaphthalen-2-yl)ethynyl]benzoic Acid] | 0.27 nM | – | – | significantly lower EC50 than ATRA |
| Cc1sc(-c2ccc(C(=O)O)cc2)nc1-c1ccc2c(c1)C(C)(C)CCC2(C)C [GZ25, reference compound] | 0.184 nM | 209 (±15.5) | significantly higher E max than ATRA | significantly lower EC50 than ATRA |
| CC1(C)CCC(C)(C)c2cc(C#Cc3ccc(C(=O)O)c(F)c3)ccc21 [Compound 13, 2-Fluoro-4-[2-(5,5,8,8-tetramethyl-5,6,7,8-tetrahydronaphthalen-2-yl)ethynyl]benzoic Acid] | – | 190 (±8.2) | significantly higher E max than ATRA | – |
| CC1(C)CCC(C)(C)c2cc(C#Cc3cc(F)c(C(=O)O)c(F)c3)ccc21 [Compound 15, 2,6-Difluoro-4-[2-(5,5,8,8-tetramethyl-5,6,7,8-tetrahydronaphthalen-2-yl)ethynyl]benzoic Acid] | – | 185 (±4.9) | significantly higher E max than ATRA | – |
| CC1(C)CCC(C)(C)c2cc(C#Cc3ccc(C(=O)O)cn3)ccc21 [Compound 23, 6-[2-(5,5,8,8-Tetramethyl-5,6,7,8-tetrahydronaphthalen-2-yl)ethynyl]pyridine-3-carboxylic Acid] | – | 210 (±8.45) | significantly higher E max than ATRA | – |
| Cc1cc2c(cc1C#Cc1ccc(C(=O)O)c(F)c1)C(C)(C)CCC2(C)C [Compound 17, 2-Fluoro-4-[2-(3,5,5,8,8-pentamethyl-5,6,7,8-tetrahydronaphthalen-2-yl)ethynyl]benzoic Acid] | 0.134 nM | 170 (±9.35) | – | significantly lower EC50 than ATRA |
| COc1cc2c(cc1C#Cc1cc(F)c(C(=O)O)c(F)c1)C(C)(C)CCC2(C)C [Compound 22, 2,6-Difluoro-4-[2-(3-methoxy-5,5,8,8-tetramethyl-5,6,7,8-tetrahydronaphthalen-2-yl)ethynyl]benzoic Acid] | 0.146 nM | 155 (±10.6) | significantly lower E max than ATRA | – |
| Cc1cc2c(cc1C#Cc1ccc(C(=O)O)cc1F)C(C)(C)CCC2(C)C [Compound 18, 3-Fluoro-4-[2-(3,5,5,8,8-pentamethyl-5,6,7,8-tetrahydronaphthalen-2-yl)ethynyl]benzoic Acid] | 1.38 nM | 140 (±12.1) | significantly lower E max than ATRA | – |
| CC1(C)CCC(C)(C)c2nc(C#Cc3ccc(C(=O)O)cc3)cnc21 [Compound 30, 4-[2-(5,5,8,8-Tetramethyl-5,6,7,8-tetrahydroquinoxalin-2-yl)ethynyl]benzoic Acid] | – | – | – | significantly lower EC50 than ATRA |
| CC1(C)CCC(C)(C)c2cc(C#Cc3ccc(C(=O)O)nc3)ccc21 [Compound 24, 5-[2-(5,5,8,8-Tetramethyl-5,6,7,8-tetrahydronaphthalen-2-yl)ethynyl]pyridine-2-carboxylic Acid] | 0.146 nM | 207 (±19.5) | significantly higher E max than ATRA | – |
| Cc1sc(-c2ccc(C(=O)O)cc2)nc1-c1cnc2c(n1)C(C)(C)CCC2(C)C [Compound 40, 4-[5-Methyl-4-(5,5,8,8-tetramethyl-5,6,7,8-tetrahydroquinoxalin-2-yl)-1,3-thiazol-2-yl]benzoic Acid] | 0.00232 nM | 181 (±7.45) | significantly higher E max than ATRA | significantly lower EC50 than ATRA |
| Cc1sc(-c2ccc(C(=O)O)cn2)nc1-c1cnc2c(n1)C(C)(C)CCC2(C)C [Compound 41, 6-[5-Methyl-4-(5,5,8,8-tetramethyl-5,6,7,8-tetrahydroquinoxalin-2-yl)-1,3-thiazol-2-yl]pyridine-3-carboxylic Acid] | 16.9 nM | 144 (±16.5) | significantly lower E max than ATRA | significantly higher EC50 values than ATRA |

Continued, in another order:

| EC50 | SMILES | genomic response Emax (±95% CI) | genomic E max compared with ATRA | genomic EC50 compared with ATRA |
| --- | --- | --- | --- | --- |
| 1.64 nM | Cc1sc(-c2ccc(C(=O)O)cc2F)nc1-c1cnc2c(n1)C(C)(C)CCC2(C)C [Compound 43, 3-Fluoro-4-[5-methyl-4-(5,5,8,8-tetramethyl-5,6,7,8-tetrahydroquinoxalin-2-yl)-1,3-thiazol-2-yl]benzoic Acid] | 195 (±35.2) | significantly higher E max than ATRA | – |
| 0.826 nM | Cc1cc2c(cc1C#Cc1ncc(C(=O)O)cn1)C(C)(C)CCC2(C)C [Compound 28, 2-[2-(3,5,5,8,8-Pentamethyl-5,6,7,8-tetrahydronaphthalen-2-yl)ethynyl]pyrimidine-5-carboxylic Acid] | 192 (±12.7) | – | – |
| 0.382 nM | CC1(C)CCC(C)(C)c2nc(C#Cc3ccc(C(=O)O)cc3F)cnc21 [Compound 31, 3-Fluoro-4-[2-(5,5,8,8-tetramethyl-5,6,7,8-tetrahydroquinoxalin-2-yl)ethynyl]benzoic Acid] | – | – | significantly lower EC50 than ATRA |
| 603 nM | COc1cc2c(cc1C#Cc1ncc(C(=O)O)cn1)C(C)(C)CCC2(C)C [Compound 29, 2-[2-(3-Methoxy-5,5,8,8-tetramethyl-5,6,7,8-tetrahydronaphthalen-2-yl)ethynyl]pyrimidine-5-carboxylic Acid] | 266 (±110) | – | significantly higher EC50 values than ATRA |
| 3.98 nM | CC1(C)CCC(C)(C)c2cc(C#Cc3cnc(C(=O)O)cn3)ccc21 [Compound 25, 5-[2-(5,5,8,8-Tetramethyl-5,6,7,8-tetrahydronaphthalen-2-yl)ethynyl]pyrazine-2-carboxylic Acid] | 174 (±8.25) | – | significantly higher EC50 values than ATRA |
| 0.0581 nM | CC1(C)CCC(C)(C)c2cc(C#Cc3ccc(C(=O)O)cc3F)ccc21 [Compound 14, 3-Fluoro-4-[2-(5,5,8,8-tetramethyl-5,6,7,8-tetrahydronaphthalen-2-yl)ethynyl]benzoic Acid] | 149 (±14.9) | significantly lower E max than ATRA | – |
